Assay results reported in patent publication US10738041B2, “Ferroportin inhibitors” (Vifor (International) AG, priority 2015, dated 2020).
Read-outs that look alike come from different tables or passages of the source.

Key:
ferroportin (Fpn) = target: T1, ferroportin (Fpn) (Mus musculus, UniProt Q9JHI9); experiment: Hepcidin Internalization Assay (J774); format: cell-based; settings: average of multiple measurements; inhibition of TMR-hepcidin (25 nM) internalization into J774 cells; read-out: J774 IC50
T1 construct: host or cells: J774 mouse macrophage cell line, Fe(III)-NTA induced
T1 sequence (Q9JHI9 1-570): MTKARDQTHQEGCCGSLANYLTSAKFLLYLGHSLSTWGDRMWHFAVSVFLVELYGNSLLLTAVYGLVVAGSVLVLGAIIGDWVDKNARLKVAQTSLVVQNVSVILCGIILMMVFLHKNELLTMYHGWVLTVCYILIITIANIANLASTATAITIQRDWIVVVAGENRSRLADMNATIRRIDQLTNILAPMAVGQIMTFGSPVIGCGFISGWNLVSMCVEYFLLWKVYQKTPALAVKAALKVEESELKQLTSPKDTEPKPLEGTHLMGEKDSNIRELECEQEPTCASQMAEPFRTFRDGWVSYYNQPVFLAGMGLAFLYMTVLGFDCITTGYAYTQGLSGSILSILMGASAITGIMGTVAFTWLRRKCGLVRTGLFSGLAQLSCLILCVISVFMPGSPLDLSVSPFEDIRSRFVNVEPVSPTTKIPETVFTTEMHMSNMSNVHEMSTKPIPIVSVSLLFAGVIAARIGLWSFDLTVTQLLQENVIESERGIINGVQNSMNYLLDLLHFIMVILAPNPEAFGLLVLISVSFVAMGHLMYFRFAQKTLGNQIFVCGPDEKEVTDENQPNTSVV
How it was run: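 Inhibition of fluorescent TMR-hepcidin uptake via ferroportin was imaged in fixed J774 cells after a 2 h, 37 °C co-incubation with compound dilutions; cells were pre-cultured overnight with 200 μM Fe(III)NTA. Internalized TMR signal per cell (Sum(Mean)) was fitted as log(inhibitor) vs. response for IC50, in triplicate.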

naïve WT C57BL/6 mice = experiment: Hypoferremia in naïve mice; format: in vivo, mouse; settings: Mus musculus, po, 3 h, read-out: Serum Iron Reduction at 3 h (%)
Experimental: Female C57BL/6 mice (Janvier, France) at age of 9 weeks were fed a standard diet (Harlan Provimi Kliba 3436) and treated per os (p.o.) with compounds or the corresponding amount of vehicle at a volume of 10 ml/kg body weight. Fpn inhibitors were formulated in 0.5% methylcellulose/water or 20% cremophor EL/water and dosed p.o. in mice at 10, 30 or 100 mg/kg body weight. Three hours later, mice were pre terminally anesthetized in isoflurane chambers and blood was collected by retro-orbital bleeding. Mice were sacrificed by cervical dislocation and spleens, livers and duodena were harvested and used for biomarker analysis. All experiments have been conducted in compliance with the license approved by the responsible veterinarian authorities. Serum was isolated by centrifugation of blood into gel-containing microtainers and serum iron was determined by the MULTIGENT Iron assay (Abbott Diagnostics, 6K95). Eight mice per group were used and one-way ANOVA with Bonferroni's multiple comparison test was performed to analyze the statistical differences between the experimental groups.

human Fpn-GFP fusion = target: T2, human Fpn-GFP fusion (Homo sapiens, UniProt Q9NP59); experiment: Inhibition of ferroportin mediated iron export activity in an iron response assay (BLAzer); format: cell-based; settings: average of multiple measurements; HEK-293 cell line #354; read-out: BLAzer EC50
T2 construct: expressed in transfected cells; host or cells: HEK-293 cell line #354 (derivative of HEK-293 Tet-ON Advanced, Clontech)
T2 sequence (Q9NP59 1-571): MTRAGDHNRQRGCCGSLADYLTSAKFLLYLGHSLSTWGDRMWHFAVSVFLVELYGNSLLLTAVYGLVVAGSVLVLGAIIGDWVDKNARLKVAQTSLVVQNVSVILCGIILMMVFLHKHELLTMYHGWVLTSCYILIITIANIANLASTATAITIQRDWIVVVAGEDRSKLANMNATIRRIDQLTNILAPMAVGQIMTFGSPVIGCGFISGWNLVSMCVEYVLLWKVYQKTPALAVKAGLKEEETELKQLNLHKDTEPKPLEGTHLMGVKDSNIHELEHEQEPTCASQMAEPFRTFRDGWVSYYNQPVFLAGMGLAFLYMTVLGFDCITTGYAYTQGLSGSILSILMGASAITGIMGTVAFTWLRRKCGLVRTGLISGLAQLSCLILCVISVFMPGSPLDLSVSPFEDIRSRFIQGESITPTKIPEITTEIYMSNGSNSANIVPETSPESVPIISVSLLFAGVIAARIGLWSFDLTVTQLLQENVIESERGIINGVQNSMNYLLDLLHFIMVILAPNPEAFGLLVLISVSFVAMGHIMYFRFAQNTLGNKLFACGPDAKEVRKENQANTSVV
Description: Intracellular iron levels are indirectly measured in this assay by monitoring the activity of a beta-lactamase (BLA) reporter gene fused to the human ferritin promoter and the associated iron regulatory element (IRE) contained within the 5′ untranslated region of the ferritin mRNA. Expression of ferroportin (Fpn) in such a cell line leads to iron efflux and lower iron levels as reflected by lower activity of the reporter gene. On the other hand, inhibition of Fpn-mediated iron efflux results in elevated cellular iron levels which is detected as increased reporter gene activity. Small molecular weight Fpn inhibitor compounds were tested for dose-dependent effects in this in vitro iron response assay as described below.
The HEK-293 cell line #354 was generated by stable integration of (i) a human Fpn-GFP fusion construct inserted in a derivative of the doxycycline-inducible pTRE-Tight-BI plasmid (Clontech, Cat. 631068) and (ii) a human ferritin promoter-BLA reporter gene into a derivative of the HEK-293 Tet-ON Advanced cell line (Clontech). […] After overnight incubation, 10 μl/well of dilution series of the test compounds were added in quadruplicates and plates were further incubated overnight at 37° C. with 5% CQ. Cells were washed 3 times with HBSS leaving 25 μl per well. BLA activity was detected by adding 5 μl/well of the GeneBlazer reagent CCF4-AM (Invitrogen, Cat. K1085) to the cells. After incubation of the plates in the dark at 18° C. for 60 min., blue and green fluorescence signals were measured in a Safre2 fluorescence plate reader (Tecan) with excitation at 410 nm and emissions at 458 nm (blue) and 522 nm (green). The ratio of blue/green fluorescence as a measure for BLA activity was calculated and EC50 values were determined with the calculated blue/green fluorescence ratios as described for the hepcidin internalization assay.

human Fpn = target: T3, human Fpn (Homo sapiens, UniProt Q9NP59); experiment: Biophysical Ferroportin-Hepcidin Binding Assay (fluorescence polarization); settings: average of multiple measurements; 1 μM human Fpn, 20 nM TMR-hepcidin; read-out: FP IC50
T3 construct: FLAG (C); made in house; host or cells: Pichia pastoris
T3 sequence (Q9NP59 1-571): T2 sequence (Q9NP59 1-571)
How it was run: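 FP readout: a dose-dependent drop in TMR-hepcidin polarization (mP, from parallel and perpendicular emission) marked blocked binding to FLAG-tagged human Fpn purified from Pichia pastoris. Final levels were 1 μM Fpn and 20 nM TMR-hepcidin, with compound dilutions in duplicate, incubated 90 min at room temperature.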

[1] = Dose 10 mg/kg p.o., naïve WT C57BL/6 mice, relative to vehicle
[2] = Dose 30 mg/kg p.o., naïve WT C57BL/6 mice, relative to vehicle
[3] = Dose 100 mg/kg p.o., naïve WT C57BL/6 mice, relative to vehicle

Row | EC50 (human Fpn-GFP fusion) [µM] | IC50 (human Fpn) [µM] | Compound | IC50 (ferroportin (Fpn)) [µM] | inhibition in vivo at 10 mg/kg (naïve WT C57BL/6 mice; [1]) [%] | inhibition in vivo at 30 mg/kg (naïve WT C57BL/6 mice; [2]) [%] | inhibition in vivo at 100 mg/kg (naïve WT C57BL/6 mice; [3]) [%] | inhibition in vivo at 10 mg/kg (naïve WT C57BL/6 mice) [%] | inhibition in vivo at 30 mg/kg (naïve WT C57BL/6 mice) [%] | inhibition in vivo at 100 mg/kg (naïve WT C57BL/6 mice) [%]
1 | – | – | O=C(NCc1ccccn1)c1coc(CCNCCc2nc3ccccc3[nH]2)n1 [Example 171] | 0.026 | 10 | 42 | 61 | – | – | –
2 | – | – | O=C(NCc1ncccc1F)c1cn(CCNCCc2nc3ccccc3[nH]2)nn1 [compound 277] | – | – | – | – | 6 | 21 | 54
3 | – | – | O=C(NCc1ccccc1)c1csc(CCNCc2ccncn2)n1 [Example 27] | 38.4 | 20 | 30 | 45 | – | – | –
4 | – | – | O=C(NCc1ncccc1Cl)c1nc(CCNCc2nc3ccccc3[nH]2)sc1Cl [Example 159] | 0.091 | 4 | 26 | 60 | – | – | –
5 | 4.47 | 0.53 | O=C(NCc1ccccc1)c1csc(CCNCc2nc3cc(C(F)(F)F)ccc3[nH]2)n1 [Example 51] | 0.36 | – | – | – | – | – | –
6 | 33.5 | 3.4 | O=C(NCc1ccccc1)c1cccc(CCNCc2nc3ccccc3[nH]2)c1 [Example 67] | 0.53 | – | – | – | – | – | –
7 | 12 | 0.267 | O=C(NCc1ncccc1F)c1cc(CCNCc2nc3ccccc3[nH]2)ccn1 [compound 232] | 1.9 | – | – | – | – | – | –
8 | 2.22 | 1.47 | O=C(c1csc(CCNCc2nc3ccccc3[nH]2)n1)N1CCc2ccccc2C1 [Example 15] | 1.6 | – | – | – | – | – | –
9 | – | – | O=C(NCc1ncccc1F)c1csc(C2CN(CCc3nc4ccccc4[nH]3)C2)n1 [Example 193] | 0.287 | 13 | 11 | 31 | – | – | –
10 | 45.1 | 5.65 | O=C(NCc1ncccc1F)N1CCCC(CCNCCc2nc3ccccc3[nH]2)C1 (centres unmarked) [compound 200] | 3.14 | – | – | – | – | – | –
11 | 6.14 | 0.295 | O=C(NCc1ncccc1F)c1cncc(CCNCCc2nc3cc(F)ccc3[nH]2)c1 [compound 245] | 0.188 | – | – | – | – | – | –
12 | 16.9 | 0.147 | O=C(NCc1ncccc1F)c1cncc(CCNCc2nc3ccccc3[nH]2)c1 [compound 221] | 0.36 | – | – | – | – | – | –
13 | 18.1 | 0.55 | O=C(NCCCCNCc1nc2ccccc2[nH]1)NCc1ncccc1F [compound 197] | 0.61 | – | – | – | – | – | –
14 | – | – | O=C(NCc1ccccn1)c1csc(CCNCCc2nc3ccccc3[nH]2)n1 [Example 58] | 0.01 | 20 | 30 | 40 | – | – | –

Row | Compound | EC50 (human Fpn-GFP fusion) [µM] | IC50 (human Fpn) [µM] | IC50 (ferroportin (Fpn)) [µM] | inhibition in vivo at 10 mg/kg (naïve WT C57BL/6 mice; [1]) [%] | inhibition in vivo at 30 mg/kg (naïve WT C57BL/6 mice; [2]) [%] | inhibition in vivo at 100 mg/kg (naïve WT C57BL/6 mice; [3]) [%] | inhibition in vivo at 10 mg/kg (naïve WT C57BL/6 mice) [%] | inhibition in vivo at 30 mg/kg (naïve WT C57BL/6 mice) [%] | inhibition in vivo at 100 mg/kg (naïve WT C57BL/6 mice) [%]
15 | O=C(NCc1ncc(F)cc1F)c1csc(CCNCc2nc3ccccc3[nH]2)n1 [Example 108] | 4.12 | 0.478 | 0.13 | – | – | – | – | – | –
16 | Cc1cnc(CNC(=O)c2csc(CCNCc3nc4ccccc4[nH]3)n2)c(C)c1 [Example 57] | 2.11 | 0.43 | 0.1 | – | – | – | – | – | –
17 | O=C(NCc1ccc(F)cn1)c1csc(CCNCc2nc3ccccc3[nH]2)n1 [Example 43] | 30.9 | 1.52 | 0.25 | – | – | – | – | – | –
18 | Cc1cccc(CNC(=O)c2csc(CCNCc3nc4ccccc4[nH]3)n2)n1 [Example 42] | 36.3 | 2.17 | 0.6 | – | – | – | – | – | –
19 | Cn1nccc1CNC(=O)c1csc(CCNCc2nc3ccccc3[nH]2)n1 [Example 88] | 13.1 | 6.76 | 0.78 | – | – | – | – | – | –
20 | O=C(NCc1ccccc1S(=O)(=O)N1CCOCC1)c1csc(CCNCc2nc3ccccc3[nH]2)n1 [Example 75] | 6 | 1.83 | 0.53 | – | – | – | – | – | –
21 | O=C(NCc1ccccc1F)c1csc(CCNCc2nc3ccccc3[nH]2)n1 [Example 65] | 32.3 | 0.95 | 0.85 | – | – | – | – | – | –
